Data from patent US11780812B2, “Oxopyridine derivatives useful as aminocarboxymuconate semialdehyde decarboxylase (ACMSD) inhibitors” (OrsoBio, Inc., priority 2016, dated 2023).

Target: human ACMSD (Homo sapiens (Human), UniProt Q8TDX5)
Assay: Human ACMSD-1 inhibitor assay (coupled 3-HAO/ACMSD, absorbance at 360 nm)
Details: read-out: hACMSD IC50; human ACMSD 6 μg/ml, 50 mM MES pH 6.0, 28° C., four-parameter dose-response fit
Description: A solution of 7.8 μg/ml 3-hydroxyanthranilate 3,4-dioxygenase (3-HAO) with protein dilution buffer (50 mM 4-Morpholineethanesulfonic acid “MES” pH 6.0) and a solution of 6 μg/ml Human 2-amino-3-carboxymuconate-6-semialdehyde decarboxylase (human ACMSD) with protein dilution buffer (50 mM MES pH 6.0) were prepared separately. A serial 2-fold dilution of test compounds, from 512 nM until 0.5 nM were prepared.
The plate was placed into a SpectraMax Plus 384 Microplate Reader, Molecular Devices with the temperature set to 28° C. The absorbance at 360 nm for 10 min with 10 seconds interval was monitored and recorded.
To a 96-well plate was added 50 μl of 6 μg/ml human ACMSD with series concentrations of the test compound. The absorbance was recorded at 360 nm for 10 min with 10 seconds interval. The data was analyzed in GraphPad Prism 6. A four-parameter dose-response curve was fitted. “Hill Slope” was constrained between −0.5 and −3, and such constrains was indicated when applied.

Sequence of human ACMSD (Q8TDX5 whole entry): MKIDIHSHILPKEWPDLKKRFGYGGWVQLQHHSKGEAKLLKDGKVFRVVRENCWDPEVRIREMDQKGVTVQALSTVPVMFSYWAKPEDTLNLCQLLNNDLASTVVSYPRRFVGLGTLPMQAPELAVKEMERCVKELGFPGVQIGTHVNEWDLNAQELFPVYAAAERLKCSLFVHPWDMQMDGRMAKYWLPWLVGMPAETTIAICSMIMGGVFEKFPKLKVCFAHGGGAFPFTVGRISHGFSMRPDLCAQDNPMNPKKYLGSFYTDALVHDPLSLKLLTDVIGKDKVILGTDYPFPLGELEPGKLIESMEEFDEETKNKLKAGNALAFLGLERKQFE

Going from `N#Cc1c(C(F)(F)F)cc(=O)[nH]c1SCC(=O)O` [Ex. 1, 2-((3-cyano-6-oxo-4-(trifluoromethyl)-1,6-dihydropyridin-2-yl)thio)acetic acid] to `N#Cc1c(C(F)(F)F)cc(=O)[nH]c1SCCC(=O)O` [Ex. 2, 3-(3-cyano-6-oxo-4-(trifluoromethyl)-1,6-dihydropyridin-2-ylthio)propanoic acid], the IC50 rises from 0.006 µM to 0.752 µM (130-fold).

`N#Cc1c(C(F)(F)F)cc(=O)[nH]c1SCc1cc(C(=O)O)ccc1Cl` [Ex. 3, 4-chloro-3-((3-cyano-6-oxo-4-(trifluoromethyl)-1,6-dihydropyridin-2-ylthio)methyl)benzoic acid] and `N#Cc1c(C(F)(F)F)cc(=O)[nH]c1SCc1cc(C(=O)O)ccc1F` [Ex. 19, 3-((3-cyano-6-oxo-4-(trifluoromethyl)-1,6-dihydropyridin-2-ylthio)methyl)-4-fluorobenzoic acid] are within 1.5-fold of each other in IC50: 0.158 µM for the first, 0.23 µM for the second.

Compared with `N#Cc1c(C(F)F)cc(=O)[nH]c1SCC(=O)O` [Ex. 4, 2-((3-cyano-4-(difluoromethyl)-6-oxo-1,6-dihydropyridin-2-yl)thio)acetic acid], `CC(C)c1cc(=O)[nH]c(SCC(=O)O)c1C#N` [Ex. 13, 2-((3-cyano-4-isopropyl-6-oxo-1,6-dihydropyridin-2-yl)thio)acetic acid] is 22-fold higher in IC50: 0.118 µM for the first, 2.6 µM for the second.

First: Cc1c(C(F)(F)F)c(C#N)c(SCC(=O)O)[nH]c1=O [Ex. 5, 2-((3-cyano-5-methyl-6-oxo-4-(trifluoromethyl)-1,6-dihydropyridin-2-yl)thio)acetic acid]
Second: N#Cc1c(SCC(=O)O)[nH]c(=O)c(F)c1C(F)(F)F [Ex. 17, 2-(3-cyano-5-fluoro-6-oxo-4-(trifluoromethyl)-1,6-dihydropyridin-2-ylthio)acetic acid]
The IC50 of the first is 2.9-fold higher: 0.026 µM for the first, 0.009 µM for the second. The second is the more potent here.

`CCCc1cc(=O)[nH]c(SCC(=O)O)c1C#N` [Ex. 6, 2-((3-cyano-6-oxo-4-propyl-1,6-dihydropyridin-2-yl)thio)acetic acid] and `CCc1cc(=O)[nH]c(SCC(=O)O)c1C#N` [Ex. 9, 2-((3-cyano-4-ethyl-6-oxo-1,6-dihydropyridin-2-yl)thio)acetic acid] are within 1.5-fold of each other in IC50: 3.05 µM for the first, 3.4 µM for the second.

First: CC(Sc1[nH]c(=O)cc(C(F)(F)F)c1C#N)C(=O)O (centres unmarked) [Ex. 7, 2-(3-cyano-6-oxo-4-(trifluoromethyl)-1,6-dihydropyridin-2-ylthio)propanoic acid]
Second: N#Cc1c(C(F)(F)F)cc(=O)[nH]c1SC(F)C(=O)O (centres unmarked) [Ex. 27, 2-(3-cyano-6-oxo-4-(trifluoromethyl)-1,6-dihydropyridin-2-ylthio)-2-fluoroacetic acid]
The IC50 of the first is 30-fold higher: 0.271 µM for the first, 0.009 µM for the second. The second is the more potent here.

Going from `N#Cc1c(C(F)(F)F)cc(=O)[nH]c1SCc1cccc(C(=O)O)c1` [Ex. 8, 3-((3-cyano-6-oxo-4-(trifluoromethyl)-1,6-dihydropyridin-2-ylthio)methyl)benzoic acid] to `N#Cc1c(C(F)(F)F)cc(=O)[nH]c1SCc1cc(F)cc(C(=O)O)c1` [Ex. 20, 3-(((3-cyano-6-oxo-4-(trifluoromethyl)-1,6-dihydropyridin-2-yl)thio)methyl)-5-fluorobenzoic acid], the IC50 falls from 1.61 µM to 0.35 µM (4.6-fold). The second is the more potent here.

Going from `CC(C)(C)c1cc(=O)[nH]c(SCC(=O)O)c1C#N` [Ex. 10, 2-((4-(tert-butyl)-3-cyano-6-oxo-1,6-dihydropyridin-2-yl)thio)acetic acid] to `COCc1cc(=O)[nH]c(SCC(=O)O)c1C#N` [Ex. 11, 2-(3-cyano-4-(methoxymethyl)-6-oxo-1,6-dihydropyridin-2-ylthio)acetic acid], the IC50 rises from 4.6 µM to 9 µM (2-fold). The first is the more potent here.

First: N#Cc1c(-c2ccccc2)cc(=O)[nH]c1SCC(=O)O [Ex. 12, 2-((3-cyano-6-oxo-4-phenyl-1,6-dihydropyridin-2-yl)thio)acetic acid]
Second: N#Cc1c(Cc2ccccc2)cc(=O)[nH]c1SCC(=O)O [Ex. 18, 2-((4-benzyl-3-cyano-6-oxo-1,6-dihydropyridin-2-yl)thio)acetic acid]
The IC50 of the first is 190-fold higher: 7 µM for the first, 0.036 µM for the second. The second is the more potent here.

Going from `N#Cc1c(C2CC2)cc(=O)[nH]c1SCC(=O)O` [Ex. 14, 2-((3-cyano-4-cyclopropyl-6-oxo-1,6-dihydropyridin-2-yl)thio)acetic acid] to `N#Cc1c(C2CCCCC2)cc(=O)[nH]c1SCc1cccc(C(=O)O)c1` [Ex. 24, 3-(((3-cyano-4-cyclohexyl-6-oxo-1,6-dihydropyridin-2-yl)thio)methyl)benzoic acid], the IC50 falls from 7.3 µM to 0.47 µM (16-fold).

Compared with `N#Cc1c(-c2ccccc2)cc(=O)[nH]c1SCc1cccc(C(=O)O)c1` [Ex. 15, 3-(((3-cyano-6-oxo-4-phenyl-1,6-dihydropyridin-2-yl)thio)methyl)benzoic acid], `Cc1cccc(-c2cc(=O)[nH]c(SCc3cccc(C(=O)O)c3)c2C#N)c1` [Ex. 25, 3-(((3-cyano-6-oxo-4-(m-tolyl)-1,6-dihydropyridin-2-yl)thio)methyl)benzoic acid] is 9.3-fold lower in IC50: 0.056 µM for the first, 0.006 µM for the second.

`COc1ccc(C(=O)O)cc1CSc1[nH]c(=O)cc(C(F)(F)F)c1C#N` [Ex. 16, 3-(((3-cyano-6-oxo-4-(trifluoromethyl)-1,6-dihydropyridin-2-yl)thio)methyl)-4-methoxybenzoic acid] and `Cc1ccc(C(=O)O)cc1CSc1[nH]c(=O)cc(C(F)(F)F)c1C#N` [Ex. 44, 3-((3-cyano-6-oxo-4-(trifluoromethyl)-1,6-dihydropyridin-2-ylthio)methyl)-4-methylbenzoic acid] are within 1.5-fold of each other in IC50: 0.53 µM for the first, 0.51 µM for the second.

Going from `N#Cc1c(C(F)(F)F)cc(=O)[nH]c1SCc1cccc(C(=O)O)c1F` [Ex. 22, 3-(((3-cyano-6-oxo-4-(trifluoromethyl)-1,6-dihydropyridin-2-yl)thio)methyl)-2-fluorobenzoic acid] to `N#Cc1c(C(F)(F)F)cc(=O)[nH]c1SCc1cccc(-c2nnn[nH]2)c1` [Ex. 42, 2-(3-(1H-tetrazol-5-yl)benzylthio)-6-oxo-4-(trifluoromethyl)-1,6-dihydropyridine-3-carbonitrile], the IC50 falls from 0.83 µM to 0.032 µM (26-fold).

Going from `N#Cc1c(-c2cccs2)cc(=O)[nH]c1SCc1cccc(C(=O)O)c1` [Ex. 23, 3-(((3-cyano-6-oxo-4-(thiophen-2-yl)-1,6-dihydropyridin-2-yl)thio)methyl)benzoic acid] to `N#Cc1c(-c2ccsc2)cc(=O)[nH]c1SCc1cccc(C(=O)O)c1` [Ex. 36, 3-((3-cyano-6-oxo-4-(thiophen-3-yl)-1,6-dihydropyridin-2-ylthio)methyl)benzoic acid], the IC50 rises from 0.007 µM to 0.16 µM (23-fold). The first is the more potent here.

Going from `N#Cc1c(-c2ccncc2)cc(=O)[nH]c1SCc1cccc(C(=O)O)c1` [Ex. 26, 3-(((3-cyano-6-oxo-1,6-dihydro-[4,4′-bipyridin]-2-yl)thio)methyl)benzoic acid] to `N#Cc1c(-c2cccnc2)cc(=O)[nH]c1SCc1cccc(C(=O)O)c1` [Ex. 37, 3-(((3′-cyano-6′-oxo-1′,6′-dihydro-[3,4′-bipyridin]-2′-yl)thio)methyl)benzoic acid], the IC50 rises from 0.029 µM to 0.05 µM (1.7-fold).

Going from `N#Cc1c(C(F)(F)F)cc(=O)[nH]c1SC(F)(F)C(=O)O` [Ex. 28, 2-((3-cyano-6-oxo-4-(trifluoromethyl)-1,6-dihydropyridin-2-yl)thio)-2,2-difluoroacetic acid] to `N#Cc1c(C(F)(F)F)cc(=O)[nH]c1SCc1nnn[nH]1` [Ex. 43, 2-(((1H-tetrazol-5-yl)methyl)thio)-6-oxo-4-(trifluoromethyl)-1,6-dihydropyridine-3-carbonitrile], the IC50 falls from 0.02 µM to 0.004 µM (5-fold).

First: Cc1ccc(-c2cc(=O)[nH]c(SCc3cccc(C(=O)O)c3)c2C#N)cc1 [Ex. 29, 3-(((3-cyano-6-oxo-4-(p-tolyl)-1,6-dihydropyridin-2-yl)thio)methyl)benzoic acid]
Second: N#Cc1c(-c2ccccn2)cc(=O)[nH]c1SCc1cccc(C(=O)O)c1 [Ex. 32, 3-(((3′-cyano-6′-oxo-1′,6′-dihydro-[2,4′-bipyridin]-2′-yl)thio)methyl)benzoic acid]
The IC50 of the first is 42-fold lower: 0.004 µM for the first, 0.17 µM for the second.

Going from `N#Cc1c(SCc2cccc(C(=O)O)c2)[nH]c(=O)c(F)c1-c1ccccc1` [Ex. 30, 3-(((3-cyano-5-fluoro-6-oxo-4-phenyl-1,6-dihydropyridin-2-yl)thio)methyl)benzoic acid] to `Cc1c(-c2ccccc2)c(C#N)c(SCc2cccc(C(=O)O)c2)[nH]c1=O` [Ex. 31, 3-((3-cyano-5-methyl-6-oxo-4-phenyl-1,6-dihydropyridin-2-ylthio)methyl)benzoic acid], the IC50 rises from 0.07 µM to > 10 µM.

First: N#Cc1c(-c2ccccc2)cc(=O)[nH]c1SCc1cccc(C(=O)O)n1 [Ex. 33, 6-(((3-cyano-6-oxo-4-phenyl-1,6-dihydropyridin-2-yl)thio)methyl)picolinic acid]
Second: N#Cc1c(-c2ccccc2)cc(=O)[nH]c1SCc1cncc(C(=O)O)c1 [Ex. 34, 5-(((3-cyano-6-oxo-4-phenyl-1,6-dihydropyridin-2-yl)thio)methyl)nicotinic acid]
The IC50 of the first is 63-fold higher: 0.19 µM for the first, 0.003 µM for the second.

Going from `N#Cc1c(CC2CCCCC2)cc(=O)[nH]c1SCc1cccc(C(=O)O)c1` [Ex. 35, 3-(((3-cyano-4-(cyclohexylmethyl)-6-oxo-1,6-dihydropyridin-2-yl)thio)methyl)benzoic acid] to `N#Cc1c(SCc2cccc(C(=O)O)c2)[nH]c(=O)c(Cl)c1-c1ccccc1` [Ex. 41, 3-(((5-chloro-3-cyano-6-oxo-4-phenyl-1,6-dihydropyridin-2-yl)thio)methyl)benzoic acid], the IC50 falls from 0.2 µM to 0.003 µM (67-fold).

Going from `N#Cc1c(SCC(=O)O)[nH]c(=O)c(Cl)c1C(F)(F)F` [Ex. 38, 2-(5-chloro-3-cyano-6-oxo-4-(trifluoromethyl)-1,6-dihydropyridin-2-ylthio)acetic acid] to `N#Cc1c(SCC(=O)O)[nH]c(=O)c(C#N)c1C(F)(F)F` [Ex. 39, 2-((3,5-dicyano-6-oxo-4-(trifluoromethyl)-1,6-dihydropyridin-2-yl)thio)acetic acid], the IC50 rises from 0.011 µM to > 10 µM.

`N#Cc1c(SCc2nnn[nH]2)[nH]c(=O)c(Cl)c1C(F)(F)F` [Ex. 40, 2-((1H-tetrazol-5-yl)methylthio)-5-chloro-6-oxo-4-(trifluoromethyl)-1,6-dihydropyridine-3-carbonitrile] and `N#Cc1c(C(F)(F)F)cc(=O)[nH]c1SCc1cc(-c2nnn[nH]2)ccc1Cl` [Ex. 45, 2-(2-chloro-5-(1H-tetrazol-5-yl)benzylthio)-6-oxo-4-(trifluoromethyl)-1,6-dihydropyridine-3-carbonitrile] are the same in IC50: 0.004 µM for the first, 0.004 µM for the second.
